The record followed here is ChEMBL document CHEMBL5465560, “Selectivity Literature for EUbOPEN Chemogenomic Library” (2024).

Test [1] concerns the target Protein kinase C eta type (Homo sapiens) (UniProt P24723). In words: Selectivity interaction (Upstate Kinase Profiler service (Millipore)) EUB0000056c PRKCH. The note with it: at 1 µM.
Test [2] has as its target Serine/threonine-protein kinase PAK 3 (Homo sapiens) (UniProt O75914). Put plainly: Selectivity interaction (KinomeScan (DiscoverX)) EUB0000045b PAK3.
The target in test [3] is T1, Sphingosine kinase 2 (Homo sapiens) (UniProt Q9NRA0).
T1 sequence (whole entry): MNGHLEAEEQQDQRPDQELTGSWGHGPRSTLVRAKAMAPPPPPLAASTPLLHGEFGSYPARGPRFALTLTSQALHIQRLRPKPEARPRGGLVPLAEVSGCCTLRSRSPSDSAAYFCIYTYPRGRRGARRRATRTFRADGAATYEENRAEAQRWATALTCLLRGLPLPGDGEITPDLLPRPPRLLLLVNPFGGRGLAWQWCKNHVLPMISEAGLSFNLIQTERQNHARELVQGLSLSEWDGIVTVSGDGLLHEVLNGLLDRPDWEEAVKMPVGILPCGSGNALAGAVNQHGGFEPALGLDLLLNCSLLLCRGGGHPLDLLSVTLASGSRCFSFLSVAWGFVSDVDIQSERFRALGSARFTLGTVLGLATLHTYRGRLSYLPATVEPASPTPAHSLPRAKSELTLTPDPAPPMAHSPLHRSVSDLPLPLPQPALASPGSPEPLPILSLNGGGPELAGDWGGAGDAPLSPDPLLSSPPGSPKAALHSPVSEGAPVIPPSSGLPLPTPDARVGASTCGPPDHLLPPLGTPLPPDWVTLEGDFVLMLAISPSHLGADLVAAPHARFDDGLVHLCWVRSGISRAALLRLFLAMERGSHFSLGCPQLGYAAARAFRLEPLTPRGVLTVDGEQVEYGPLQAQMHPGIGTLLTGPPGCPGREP
Put plainly: Selectivity interaction (Adapta Assay) EUB0001632a SPHK2. To be noted: at 10 µM.

In test [4] the target is T2, Histone-arginine methyltransferase CARM1 (Homo sapiens) (UniProt Q86X55).
T2 sequence (whole entry): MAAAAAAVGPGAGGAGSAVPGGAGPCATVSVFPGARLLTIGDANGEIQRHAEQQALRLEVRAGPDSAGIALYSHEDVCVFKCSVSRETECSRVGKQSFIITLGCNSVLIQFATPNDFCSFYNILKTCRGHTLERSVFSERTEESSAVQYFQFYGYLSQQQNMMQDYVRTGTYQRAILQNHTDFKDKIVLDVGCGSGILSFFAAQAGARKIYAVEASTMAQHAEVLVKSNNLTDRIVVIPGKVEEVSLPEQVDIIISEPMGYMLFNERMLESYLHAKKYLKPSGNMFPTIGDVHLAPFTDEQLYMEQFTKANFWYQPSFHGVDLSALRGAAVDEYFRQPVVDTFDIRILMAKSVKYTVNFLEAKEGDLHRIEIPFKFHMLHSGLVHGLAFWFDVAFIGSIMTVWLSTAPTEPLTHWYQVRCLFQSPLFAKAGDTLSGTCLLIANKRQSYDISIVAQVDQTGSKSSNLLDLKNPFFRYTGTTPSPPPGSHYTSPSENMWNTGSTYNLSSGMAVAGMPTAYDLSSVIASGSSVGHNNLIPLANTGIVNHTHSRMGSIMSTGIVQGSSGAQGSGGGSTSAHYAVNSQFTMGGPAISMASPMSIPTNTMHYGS
To be noted: MM.1R, at 3 µM.

Test [5] concerns the target Casein kinase II subunit alpha' (Homo sapiens) (UniProt P19784). In words: Selectivity interaction (KinomeScan (DiscoverX)) EUB0000229b CSNK2A2. The note with it: at 10 µM.
Test [6] concerns the target T3, Serine/threonine-protein kinase TAO2 (Homo sapiens) (UniProt Q9UL54).
T3 sequence (whole entry): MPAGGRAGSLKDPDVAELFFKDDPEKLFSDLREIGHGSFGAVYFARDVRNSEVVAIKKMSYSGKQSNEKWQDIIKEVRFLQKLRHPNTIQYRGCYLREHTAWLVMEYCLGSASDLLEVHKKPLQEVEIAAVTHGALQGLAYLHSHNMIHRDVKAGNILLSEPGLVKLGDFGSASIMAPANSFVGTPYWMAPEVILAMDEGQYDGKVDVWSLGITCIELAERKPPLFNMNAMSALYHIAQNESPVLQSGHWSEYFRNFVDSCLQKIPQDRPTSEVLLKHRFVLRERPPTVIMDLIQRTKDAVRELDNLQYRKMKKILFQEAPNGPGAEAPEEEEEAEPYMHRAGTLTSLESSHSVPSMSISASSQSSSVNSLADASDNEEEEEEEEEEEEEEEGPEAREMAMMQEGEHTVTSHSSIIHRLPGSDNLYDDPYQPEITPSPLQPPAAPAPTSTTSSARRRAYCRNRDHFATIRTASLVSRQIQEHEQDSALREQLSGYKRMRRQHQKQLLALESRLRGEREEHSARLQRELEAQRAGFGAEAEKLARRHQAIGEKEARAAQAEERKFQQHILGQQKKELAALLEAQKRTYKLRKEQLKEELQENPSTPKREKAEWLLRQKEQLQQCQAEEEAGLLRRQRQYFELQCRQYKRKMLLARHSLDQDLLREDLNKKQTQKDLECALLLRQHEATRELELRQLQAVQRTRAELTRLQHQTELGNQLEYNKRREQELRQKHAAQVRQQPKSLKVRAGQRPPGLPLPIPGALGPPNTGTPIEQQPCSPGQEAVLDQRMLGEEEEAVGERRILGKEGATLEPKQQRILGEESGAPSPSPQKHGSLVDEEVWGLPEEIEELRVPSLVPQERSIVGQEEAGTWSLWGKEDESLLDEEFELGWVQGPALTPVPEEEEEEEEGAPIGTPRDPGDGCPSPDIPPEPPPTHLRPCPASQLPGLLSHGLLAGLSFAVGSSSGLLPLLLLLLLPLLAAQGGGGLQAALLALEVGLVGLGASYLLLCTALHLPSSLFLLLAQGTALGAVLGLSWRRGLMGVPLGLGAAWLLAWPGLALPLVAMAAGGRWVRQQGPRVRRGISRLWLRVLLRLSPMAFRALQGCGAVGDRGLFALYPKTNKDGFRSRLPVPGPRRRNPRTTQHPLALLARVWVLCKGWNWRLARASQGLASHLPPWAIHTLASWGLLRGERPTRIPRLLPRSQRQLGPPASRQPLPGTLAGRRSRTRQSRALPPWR
In words: Selectivity interaction (KinomeScan (DiscoverX)) EUB0000595a TAOK2. To be noted: at 10 µM.

The target in test [7] is Phosphatidylinositol 4-phosphate 3-kinase C2 domain-containing subunit beta (Homo sapiens) (UniProt O00750). In words: Selectivity interaction (KinomeScan (DiscoverX)) EUB0001619a PIK3C2B. The note with it: at 1 µM.

Each structure is given as a SMILES string.

Chain of Serine/threonine-protein kinase PAK 3 (Homo sapiens) (O75914 whole entry, looked up): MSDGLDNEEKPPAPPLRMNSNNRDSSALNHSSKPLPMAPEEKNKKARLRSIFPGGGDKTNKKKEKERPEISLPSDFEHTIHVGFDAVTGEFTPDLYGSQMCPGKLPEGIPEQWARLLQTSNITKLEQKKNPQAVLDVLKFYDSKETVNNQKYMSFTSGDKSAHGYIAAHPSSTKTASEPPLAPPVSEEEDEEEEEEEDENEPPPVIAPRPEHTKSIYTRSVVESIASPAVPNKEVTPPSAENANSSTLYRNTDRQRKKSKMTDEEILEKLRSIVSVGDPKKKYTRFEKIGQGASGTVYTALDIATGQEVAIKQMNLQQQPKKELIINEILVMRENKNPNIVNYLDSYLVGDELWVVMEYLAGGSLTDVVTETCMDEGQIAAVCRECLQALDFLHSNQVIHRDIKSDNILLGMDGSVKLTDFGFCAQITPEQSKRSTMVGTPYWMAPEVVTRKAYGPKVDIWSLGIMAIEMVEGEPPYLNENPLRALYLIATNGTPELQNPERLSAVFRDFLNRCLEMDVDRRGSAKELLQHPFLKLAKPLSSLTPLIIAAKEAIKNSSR
Chain of Protein kinase C eta type (Homo sapiens) (P24723 whole entry): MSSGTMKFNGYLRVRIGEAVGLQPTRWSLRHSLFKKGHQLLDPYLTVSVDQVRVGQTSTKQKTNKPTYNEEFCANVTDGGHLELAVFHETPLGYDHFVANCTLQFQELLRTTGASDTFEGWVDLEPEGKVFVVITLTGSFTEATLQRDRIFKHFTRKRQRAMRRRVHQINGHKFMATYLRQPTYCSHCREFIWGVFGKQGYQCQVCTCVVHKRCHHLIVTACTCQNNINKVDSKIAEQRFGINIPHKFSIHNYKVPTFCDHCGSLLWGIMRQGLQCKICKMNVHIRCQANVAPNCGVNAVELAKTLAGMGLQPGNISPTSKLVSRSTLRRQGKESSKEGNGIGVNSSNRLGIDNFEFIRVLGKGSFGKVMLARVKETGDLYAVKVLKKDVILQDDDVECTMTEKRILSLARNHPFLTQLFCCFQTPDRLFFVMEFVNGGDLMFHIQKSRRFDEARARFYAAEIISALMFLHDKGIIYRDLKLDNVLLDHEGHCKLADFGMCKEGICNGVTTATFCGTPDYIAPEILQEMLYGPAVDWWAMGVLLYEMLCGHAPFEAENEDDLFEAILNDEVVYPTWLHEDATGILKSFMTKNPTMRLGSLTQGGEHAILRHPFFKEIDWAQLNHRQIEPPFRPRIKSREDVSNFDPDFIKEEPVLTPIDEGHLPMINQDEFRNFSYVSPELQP
Chain of Phosphatidylinositol 4-phosphate 3-kinase C2 domain-containing subunit beta (Homo sapiens) (O00750 whole entry, the tested form may be a part): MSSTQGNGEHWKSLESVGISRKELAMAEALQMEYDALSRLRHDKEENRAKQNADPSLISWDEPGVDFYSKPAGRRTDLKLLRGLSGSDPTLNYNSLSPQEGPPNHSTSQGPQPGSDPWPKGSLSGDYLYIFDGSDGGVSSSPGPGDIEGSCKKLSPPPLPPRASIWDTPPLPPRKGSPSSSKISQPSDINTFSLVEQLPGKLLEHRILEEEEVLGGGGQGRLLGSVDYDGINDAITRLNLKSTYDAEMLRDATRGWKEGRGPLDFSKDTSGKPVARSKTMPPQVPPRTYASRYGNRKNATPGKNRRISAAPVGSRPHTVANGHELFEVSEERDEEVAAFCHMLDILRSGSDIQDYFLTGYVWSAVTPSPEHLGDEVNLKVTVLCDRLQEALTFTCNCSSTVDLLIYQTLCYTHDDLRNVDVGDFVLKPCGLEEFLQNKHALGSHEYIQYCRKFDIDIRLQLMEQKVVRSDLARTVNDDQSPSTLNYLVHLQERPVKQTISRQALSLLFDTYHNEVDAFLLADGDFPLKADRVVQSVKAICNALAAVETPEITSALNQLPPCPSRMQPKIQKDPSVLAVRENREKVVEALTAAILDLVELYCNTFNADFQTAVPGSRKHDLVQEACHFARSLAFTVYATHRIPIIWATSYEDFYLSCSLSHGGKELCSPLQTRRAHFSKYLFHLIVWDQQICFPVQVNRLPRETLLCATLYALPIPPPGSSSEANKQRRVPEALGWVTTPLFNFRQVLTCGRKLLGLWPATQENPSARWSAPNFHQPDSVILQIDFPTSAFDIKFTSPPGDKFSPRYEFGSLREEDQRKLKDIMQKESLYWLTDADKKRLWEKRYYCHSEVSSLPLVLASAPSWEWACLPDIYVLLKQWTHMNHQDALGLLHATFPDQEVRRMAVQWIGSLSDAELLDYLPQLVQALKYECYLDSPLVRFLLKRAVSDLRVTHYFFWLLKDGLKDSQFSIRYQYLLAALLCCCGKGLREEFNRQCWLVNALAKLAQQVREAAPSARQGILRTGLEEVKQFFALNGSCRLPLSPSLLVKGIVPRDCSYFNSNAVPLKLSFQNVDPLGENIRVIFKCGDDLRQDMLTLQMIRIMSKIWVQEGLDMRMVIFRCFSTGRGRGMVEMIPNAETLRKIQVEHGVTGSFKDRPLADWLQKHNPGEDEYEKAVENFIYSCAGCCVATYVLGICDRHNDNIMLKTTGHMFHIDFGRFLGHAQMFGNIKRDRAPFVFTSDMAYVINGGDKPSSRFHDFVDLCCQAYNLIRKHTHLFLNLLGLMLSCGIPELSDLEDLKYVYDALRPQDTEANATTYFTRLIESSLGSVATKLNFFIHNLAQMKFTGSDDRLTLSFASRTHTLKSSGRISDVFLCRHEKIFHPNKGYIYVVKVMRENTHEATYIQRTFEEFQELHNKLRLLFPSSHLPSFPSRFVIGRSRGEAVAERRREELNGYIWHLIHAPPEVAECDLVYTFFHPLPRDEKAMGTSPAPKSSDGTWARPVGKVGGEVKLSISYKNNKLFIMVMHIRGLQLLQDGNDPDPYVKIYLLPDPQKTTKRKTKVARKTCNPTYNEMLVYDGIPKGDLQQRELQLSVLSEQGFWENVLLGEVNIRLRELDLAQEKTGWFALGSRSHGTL
Chain of Casein kinase II subunit alpha' (Homo sapiens) (P19784 whole entry, looked up): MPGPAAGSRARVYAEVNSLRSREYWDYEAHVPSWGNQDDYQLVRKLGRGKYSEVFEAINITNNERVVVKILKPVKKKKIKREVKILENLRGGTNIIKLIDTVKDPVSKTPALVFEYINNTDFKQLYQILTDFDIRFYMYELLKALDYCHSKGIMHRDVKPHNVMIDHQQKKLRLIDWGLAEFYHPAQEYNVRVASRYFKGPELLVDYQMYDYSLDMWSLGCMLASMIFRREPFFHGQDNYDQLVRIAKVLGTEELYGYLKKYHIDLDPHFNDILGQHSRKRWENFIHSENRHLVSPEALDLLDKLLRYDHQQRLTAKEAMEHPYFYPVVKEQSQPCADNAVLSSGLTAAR

`Cc1ccc(-c2ccc3c(ccc4sc5c(c43)NC[C@@H](C)NC5=O)n2)cn1` registered a % of inhibition in test [1] of 6%. Take `C=CC(=O)Nc1cc(-n2c(=O)ccc3cnc4ccc(-c5ccc(NS(C)(=O)=O)cc5)cc4c32)ccc1C`: the % of control was 92% in test [2] (at 1 µM) and 100% in test [2] (at 10 µM). The compound `Cn1cc(-n2cnc3c(NCc4nc5cc(Cl)c(Cl)cc5[nH]4)nc(N4CCOCC4)nc32)cn1` came in with a % of inhibition in test [3] of 67.7%. For `CNCCN1CCC(c2cc(CN(C)C(=O)c3cccc(Oc4ccccc4)c3)ccn2)CC1`, in test [4], the % of growth rate was -37.8%. In turn, `COc1cc(N(C)c2ccnc3ccc(C(F)(F)F)cc23)cc(OC)c1OC` returned a % binding in test [5] of 100%.

`COCC(=O)NC/C=C/c1ccc2ncnc(Nc3ccc(Oc4ccc(C)nc4)c(C)c3)c2c1` [CP-724714]: the % of control in test [6] is 100%.

For the compound `N#Cc1cccc(-c2c[nH]c3ncnc(N4CCOCC4)c23)c1`, in test [7], the % of control amounted to 100%.
